Data taken from patent US20220056037A1 (SPV THERAPEUTICS INC., priority 2018, published 2022).

Assays:
Assay in all cases: 2D cell proliferation assay (CellTiter-Blue)
Format in all cases: cell-based
MEXF WM-266-4 = conditions: Homo sapiens, 72 h; cell line MEXF WM-266-4; three days of treatment; read-out: IC (abs. IC50)
Experimental: (§1) Viability of the cells was analyzed by using the CellTiter-Blue® Cell Viability Assay (Promega), and was performed according to manufacturer's instructions. Briefly, cells were harvested from exponential phase cultures (Chapter 6.6), counted and plated in 96-well flat-bottom microtiter plates at a cell density of 4,000-60,000 cells/well in a volume of 140 μl per well. After a 24 hours recovery period, 10 μL cell culture medium (six control wells/plate) or culture medium with test compound were added (Chapter 6.2). The compounds were applied at five concentrations in full-log increments up to 100 μM in duplicate. Cultures were incubated at 37° C. and 5% CO2 in a humidified atmosphere for another three days. After three days of treatment, 20 μl/well CellTiter-Blue® reagent was added. Following incubation with CellTiter-Blue® reagent for up to four hours, fluorescence (FU) was measured by using the Enspire Multimode Plate Reader (excitation λ=570 nm, emission λ=600 nm). For calculations, the mean values of duplicate/sextuplicate (untreated control) data were used.
(§2) Drug effects were expressed in terms of the percentage of the fluorescence signal, obtained by comparison of the mean signal in the treated wells with the mean signal of the untreated controls (expressed by the test-versus-control value, T/C-value [%]):
(§3) IC values are reported as relative IC50 values and absolute IC50 and IC70 values. […] The absolute IC70 value gives the concentration of the test compound that achieves T/C=30%. The relative IC50 value is the concentration of test compound that gives a response half way between the top and bottom plateau of the sigmoidal concentration-response curve (inflection point of the curve). Calculation was done by 4parameter non-linear curve fit (Oncotest Data Warehouse Software).
(§4) If an IC50 or IC70 value could not be determined within the examined dose range (because a compound was either too active or lacked activity), the lowest or highest concentration studied was used for calculation of the geometric mean value.
(§5) The overall potency of a compound was determined by the geometric mean IC50/IC70 values of all individual IC50/IC70 values. In the heatmap representation of IC50 and IC70 values, the distribution of the IC50 or IC70 values obtained for a test compound in the individual cell lines is given in relation to the geometric mean […] or IC70 value, obtained over all PDX models tested. The individual IC values range from 1/32-fold geometric mean IC (corresponding to very potent compound activity or high tumor sensitivity) to 32-fold geometric mean IC (corresponding to lack of compound activity or tumor resistance). The heatmap presentation, therefore, represents an antiproliferative “fingerprint” profile of a test compound.

BXF 5637 = conditions: 72 h; cell line BXF 5637; three days of treatment; read-out: IC (abs. IC50)
Experimental: as §1, §2, §3, §4, §5

LYXFNH Daudi = conditions: Homo sapiens, 72 h; cell line LYXFNH Daudi; three days of treatment; read-out: IC (abs. IC50)
Experimental: as §1, §2, §3, §4, §5

MMXF U-266 = conditions: Homo sapiens, 72 h; cell line MMXF U-266; three days of treatment; read-out: IC (abs. IC50)
Experimental: as §1, §2, §3, §4, §5

PRXF VCap = conditions: Homo sapiens, 72 h; cell line PRXF VCap; three days of treatment; read-out: IC (abs. IC50)
Experimental: as §1, §2, §3, §4, §5

LXFL NCI-H460 = conditions: Homo sapiens, 72 h; cell line LXFL NCI-H460; three days of treatment; read-out: IC (abs. IC50)
Experimental: as §1, §2, §3, §4, §5

LIXAH SNU-398 = conditions: Homo sapiens, 72 h; cell line LIXAH SNU-398; three days of treatment; read-out: IC (abs. IC50)
Experimental: as §1, §2, §3, §4, §5

LEXFCM K-562 = conditions: Homo sapiens, K562, 72 h; cell line LEXFCM K-562; three days of treatment; read-out: IC (abs. IC50)
Experimental: as §1, §2, §3, §4, §5

CXF HCT-15 = conditions: Homo sapiens, 72 h; cell line CXF HCT-15; three days of treatment; read-out: IC (abs. IC50)
Experimental: as §1, §2, §3, §4, §5

MAXFLB MCF7 (ER +) = conditions: Homo sapiens, 72 h; cell line MAXFLB MCF7 (ER +); three days of treatment; read-out: IC (abs. IC50)
Experimental: as §1, §2, §3, §4, §5

CXF COLO 205 = conditions: Homo sapiens, 72 h; cell line CXF COLO 205; three days of treatment; read-out: IC (abs. IC50)
Experimental: as §1, §2, §3, §4, §5

MAXFTN MDA-MB-453 = conditions: Homo sapiens, 72 h; cell line MAXFTN MDA-MB-453; three days of treatment; read-out: IC (abs. IC50)
Experimental: as §1, §2, §3, §4, §5

PAXF BxPC-3 = conditions: Homo sapiens, 72 h; cell line PAXF BxPC-3; three days of treatment; read-out: IC (abs. IC50)
Experimental: as §1, §2, §3, §4, §5

LEXFAM MV4-11 = conditions: Homo sapiens, 72 h; cell line LEXFAM MV4-11; three days of treatment; read-out: IC (abs. IC50)
Experimental: as §1, §2, §3, §4, §5

MEXF M14 = conditions: 72 h; cell line MEXF M14; three days of treatment; read-out: IC (abs. IC50)
Experimental: as §1, §2, §3, §4, §5

MEXF A-375 = conditions: Homo sapiens, 72 h; cell line MEXF A-375; three days of treatment; read-out: IC (abs. IC50)
Experimental: as §1, §2, §3, §4, §5

MAXFTN BT-549 = conditions: Homo sapiens, 72 h; cell line MAXFTN BT-549; three days of treatment; read-out: IC (abs. IC50)
Experimental: as §1, §2, §3, §4, §5

LXFA NCI-H1975 = conditions: Homo sapiens, 72 h; cell line LXFA NCI-H1975; three days of treatment; read-out: IC (abs. IC50)
Experimental: as §1, §2, §3, §4, §5

Q: `CN1CCN(c2ccc(Nc3ncc4cc(C(=O)N(C)C)n(C56CC(C5)C6)c4n3)cc2)CC1` [SPV113] was tested. Which IC50 (MEXF WM-266-4) did it give?
A: The IC50 was 3.3 µM.

Q: And the IC50 (BXF 5637)?
A: The IC50 was 0.476 µM.

Q: And the IC50 (LYXFNH Daudi)?
A: Its IC50 is no more than 0.01 µM.

Q: What about the IC50 (MMXF U-266) of the same compound?
A: Its IC50 is 0.655 µM.

Q: And the IC50 (PRXF VCap)?
A: Its IC50 is 0.015 µM.

Q: And the IC50 (LXFL NCI-H460)?
A: The IC50 was 0.291 µM.

Q: And the IC50 (LIXAH SNU-398)?
A: Its IC50 is 0.148 µM.

Q: What about the IC50 (LEXFCM K-562) of the same compound?
A: The IC50 was 1.15 µM.

Q: What about the IC50 (CXF HCT-15) of the same compound?
A: Its IC50 is 0.202 µM.

Q: What about the IC50 (MAXFLB MCF7 (ER +)) of the same compound?
A: The IC50 was 0.173 µM.

Q: And the IC50 (CXF COLO 205)?
A: The IC50 was 0.148 µM.

Q: What about the IC50 (MAXFTN MDA-MB-453) of the same compound?
A: Its IC50 is 0.177 µM.

Q: And the IC50 (PAXF BxPC-3)?
A: Its IC50 is 0.193 µM.

Q: What about the IC50 (LEXFAM MV4-11) of the same compound?
A: Its IC50 is no more than 0.01 µM.

Q: What about the IC50 (MEXF M14) of the same compound?
A: Its IC50 is 1.01 µM.

Q: What about the IC50 (MEXF A-375) of the same compound?
A: Its IC50 is 0.101 µM.

Q: What about the IC50 (MAXFTN BT-549) of the same compound?
A: The IC50 was 0.713 µM.

Q: And the IC50 (LXFA NCI-H1975)?
A: Its IC50 is 0.122 µM.
